Measured values from US9938270B2, “Mono-phosphate salt of 6-fluoro-2-[4-(pyridin-2-yl)but-3-yn-1-yl]imidazo[1,2A]pyridine (dipraglurant) and polymorphs thereof as negative allosteric modulator of MGLU5 receptor” (Addex Pharma S.A., priority 2013, dated 2018).
Values after ≈ are worked out from the molar mass of the structure shown.

Test: aqueous solubility
Assay type: physicochemical
Conditions: aqueous medium, aqueous buffer; at all relevant physiological pH

solubility | SMILES
0.5 mg/mL (≈ 1880 µM) | Fc1ccc2nc(CCC#Cc3ccccn3)cn2c1 [free base, 6-Fluoro-2-[4-(pyridin-2-yl)but-3-yn-1-yl]imidazo[1,2-a]pyridine]
21 to 32.5 mg/mL | Fc1ccc2nc(CCC#Cc3ccccn3)cn2c1.O=P(O)(O)O [mono-phosphate salt, 6-fluoro-2-[4-(pyridin-2-yl)but-3-yn-1-yl]imidazo[1,2-a]pyridine mono-phosphate salt]
